Molecules are shown by their SMILES.

The values below come from patent US20220169643A1, “ESTROGEN RECEPTOR DEGRADING PROTACS” (AstraZeneca AB, priority 2019, published 2022).

The target in this assay is T1, Estrogen Receptor Alpha Ligand binding domain (ER alpha-LBD (GST)) (Homo sapiens, UniProt P03372).
T1 construct: made in house
T1 sequence (P03372 307-554): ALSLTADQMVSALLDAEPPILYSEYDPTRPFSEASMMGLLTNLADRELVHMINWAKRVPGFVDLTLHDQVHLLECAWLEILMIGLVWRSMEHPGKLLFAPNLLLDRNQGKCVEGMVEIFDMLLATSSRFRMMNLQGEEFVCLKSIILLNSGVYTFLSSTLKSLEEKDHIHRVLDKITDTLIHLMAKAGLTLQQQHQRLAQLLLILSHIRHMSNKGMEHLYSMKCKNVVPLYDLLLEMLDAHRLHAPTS
As to the kind of experiment: ERα Binding Assay (LanthaScreen TR-FRET competition). Particulars: competitive displacement of Fluormone ES2 tracer from recombinant human ER alpha-LBD (residues 307-554), 4 hours at room temperature. The method, then:
The ability of compounds to bind to isolated Estrogen Receptor Alpha Ligand binding domain (ER alpha-LBD (GST)) was assessed in competition assays using a LanthaScreen™ Time-Resolved Fluorescence Resonance Energy Transfer (TR-FRET) detection end-point. For the LanthaScreen TR-FRET endpoint, a suitable fluorophore (Fluormone ES2, ThermoFisher, Product code P2645) and recombinant human Estrogen Receptor alpha ligand binding domain, residues 307-554 (expressed and purified in-house) were used to measure compound binding. The assay principle is that ER alpha-LBD (GST) is added to a fluorescent ligand to form a receptor/fluorophore complex. A terbium-labelled anti-GST antibody (Product code PV3551) is used to indirectly label the receptor by binding to its GST tag, and competitive binding is detected by a test compound's ability to displace the fluorescent ligand, resulting in a loss of TR-FRET signal between the Th-anti-GST antibody and the tracer. The assay was performed as follows with all reagent additions carried out using the Beckman Coulter BioRAPTR FRD microfluidic workstation: • 1. Acoustic dispense 120 nL of the test compound into a black low volume 384 well assay plates. • 2. Prepare 1×ER alpha-LBD/Tb-anti-GST Ab in ES2 screening buffer and incubate for 15 minutes. • 3. Dispense 6 μL of the 1×[…]/Th-anti-GST Ab reagent into each well of the assay plate followed by 6 μL of Fluorophore reagent into each well of the assay plate • 4. Cover the assay plate to protect the reagents from light and evaporation, and incubate at room temperature for 4 hours. • 5. Excite at 337 nm and measure the fluorescent emission signal of each well at 490 nm and 520 nm using the BMG PheraSTAR.
Compounds were dosed directly from a compound source microplate containing serially diluted compound (4 wells containing 10 mM, […] and 10 nM final compound respectively) to an assay microplate using the Labcyte Echo 550. The Echo 550 is a liquid handler that uses acoustic technology to perform direct microplate-to-microplate transfers of DMSO compound solutions and the system can be programmed to transfer multiple small nL volumes of compound from the different source plate wells to give the desired serial dilution of compound in the assay which is then back-filled to normalise the DMSO concentration across the dilution range.
In total 120 nL of compound plus DMSO were added to each well and compounds were tested in a 12-point concentration response format over a final compound concentration range of 10, 2.917, 1.042, 0.2083, 0.1, 0.0292, 0.0104, 0.002083, 0.001, 0.0002917, 0.0001042, and 0.00001 μM respectively. TR-FRET dose response data obtained with each compound was exported into a suitable software package (such as Origin or Genedata) to perform curve fitting analysis. Competitive ER alpha binding was expressed as an IC50 value. This was determined by calculation of the concentration of compound that was required to give a 50% reduction in tracer compound binding to ER alpha-LBD.
For the molecule `C[C@@H]1Cc2c([nH]c3ccccc23)[C@@H](c2cnc(OCCCCCN3CCN(c4ccc5c(c4)CN(C4CCC(=O)NC4=O)C5=O)CC3)nc2)N1CC(C)(C)F` (stereo partly drawn) [Example 40, 3-(5-{4-[5-({5-[(1R,3R)-2-(2-fluoro-2-methylpropyl)-3-methyl-2,3,4,9-tetrahydro-1H-beta-carbolin-1-yl]pyrimidin-2-yl}oxy)pentyl]piperazin-1-yl}-1-oxo-1,3-dihydro-2H-isoindol-2-yl)piperidine-2,6-dione], the IC50 is 7 nM.
The same measure for `C[C@@H]1Cc2c([nH]c3ccccc23)[C@@H](c2cnc(N3CCC(CN4CCN(CC5CCN(c6ccc7c(c6)CN(C6CCC(=O)NC6=O)C7=O)CC5)CC4)CC3)nc2)N1CC(C)(C)F` (some centres unmarked) [Example 6]: 5.6 nM.
The result for `C[C@@H]1Cc2c([nH]c3ccccc23)[C@@H](c2cnc(N3CCC(CCN4CCOC5(CC4)CCN(c4ccc6c(c4)CN(C4CCC(=O)NC4=O)C6=O)CC5)CC3)nc2)N1CC(C)(C)F` (stereo partly drawn) [Example 20, 3-(5-{10-[2-(1-{5-[(1R,3R)-2-(2-fluoro-2-methylpropyl)-3-methyl-2,3,4,9-tetrahydro-1H-beta-carbolin-1-yl]pyrimidin-2-yl}piperidin-4-yl)ethyl]-7-oxa-3,10-diazaspiro[5.6]dodecan-3-yl}-1-oxo-1,3-dihydro-2H-isoindol-2-yl)piperidine-2,6-dione] reads 2 nM; that for `C[C@@H]1Cc2c([nH]c3ccccc23)[C@@H](c2cnc(N3CCC(CN4CCOC5(CC4)CCN(c4ccc6c(c4)CN(C4CCC(=O)NC4=O)C6=O)CC5)CC3)nc2)N1CC(C)(C)F` (stereo partly drawn) [Example 19, 3-(5-{10-[(1-{5-[(1R,3R)-2-(2-fluoro-2-methylpropyl)-3-methyl-2,3,4,9-tetrahydro-1H-beta-carbolin-1-yl]pyrimidin-2-yl}piperidin-4-yl)methyl]-7-oxa-3,10-diazaspiro[5.6]dodecan-3-yl}-1-oxo-1,3-dihydro-2H-isoindol-2-yl)piperidine-2,6-dione], 5.3 nM.
The result for `C[C@@H]1Cc2c([nH]c3ccccc23)[C@@H](c2cnc(N3CCC(CCN4CCC5(CC4)CCN(c4ccc6c(c4)CN(C4CCC(=O)NC4=O)C6=O)CC5)CC3)nc2)N1CC(C)(C)F` (stereo partly drawn) [Example 11, 3-(5-{9-[2-(1-{5-[(1R,3R)-2-(2-fluoro-2-methylpropyl)-3-methyl-2,3,4,9-tetrahydro-1H-beta-carbolin-1-yl]pyrimidin-2-yl}piperidin-4-yl)ethyl]-3,9-diazaspiro[5.5]undecan-3-yl}-1-oxo-1,3-dihydro-2H-isoindol-2-yl)piperidine-2,6-dione] reads 1.2 nM; that for `C[C@@H]1Cc2c([nH]c3ccccc23)[C@@H](c2ccc(N3CCC(CN4CCC5(CC4)CCN(c4ccc6c(c4)CN(C4CCC(=O)NC4=O)C6=O)CC5)CC3)cn2)N1CC(C)(C)F` (stereo partly drawn) [Example 21, 3-(5-{9-[(1-{6-[(1S,3R)-2-(2-fluoro-2-methylpropyl)-3-methyl-2,3,4,9-tetrahydro-1H-beta-carbolin-1-yl]pyridin-3-yl}piperidin-4-yl)methyl]-3,9-diazaspiro[5.5]undecan-3-yl}-1-oxo-1,3-dihydro-2H-isoindol-2-yl)piperidine-2,6-dione], 7.6 nM; that for `COc1cc(N2CCN(CC3CCN(c4ncc([C@@H]5c6[nH]c7ccccc7c6C[C@@H](C)N5CC(C)(C)F)cn4)CC3)CC2)cc2c1C(=O)N(C1CCC(=O)NC1=O)C2` (stereo partly drawn) [Example 39, 3-(5-{4-[(1-{5-[(1R,3R)-2-(2-fluoro-2-methylpropyl)-3-methyl-2,3,4,9-tetrahydro-1H-beta-carbolin-1-yl]pyrimidin-2-yl}piperidin-4-yl)methyl]piperazin-1-yl}-7-methoxy-1-oxo-1,3-dihydro-2H-isoindol-2-yl)piperidine-2,6-dione], 3.2 nM.
For the molecule `C[C@@H]1Cc2c([nH]c3ccccc23)[C@@H](c2cnc(N3CCC(CN4CCC(CN5CCN(c6ccc7c(c6)CN(C6CCC(=O)NC6=O)C7=O)CC5)CC4)CC3)nc2)N1CC(C)(C)F` (stereo partly drawn) [Example 14, 3-{5-[4-({1-[(1-{5-[(1R,3R)-2-(2-fluoro-2-methylpropyl)-3-methyl-2,3,4,9-tetrahydro-1H-beta-carbolin-1-yl]pyrimidin-2-yl}piperidin-4-yl)methyl]piperidin-4-yl}methyl)piperazin-1-yl]-1-oxo-1,3-dihydro-2H-isoindol-2-yl}piperidine-2,6-dione], the IC50 is 8.5 nM.
The same measure for `C[C@@H]1Cc2c([nH]c3ccccc23)[C@@H](c2cnc(N3CCC(CN4CCN(c5ccc6c(c5)CN(C5CCC(=O)NC5=O)C6=O)CC4)CC3)nc2)N1CC(F)(F)F` (stereo partly drawn) [Example 35, 3-(5-{4-[(1-{5-[(1R,3R)-3-methyl-2-(2,2,2-trifluoroethyl)-2,3,4,9-tetrahydro-1H-beta-carbolin-1-yl]pyrimidin-2-yl}piperidin-4-yl)methyl]piperazin-1-yl}-1-oxo-1,3-dihydro-2H-isoindol-2-yl)piperidine-2,6-dione]: 6.9 nM; for `C[C@@H]1Cc2c([nH]c3ccccc23)[C@@H](c2cnc(N3CCC(CN(C)C4CN(CC5CCN(c6ccc7c(c6)CN(C6CCC(=O)NC6=O)C7=O)CC5)C4)CC3)nc2)N1CC(C)(C)F` (stereo partly drawn) [Example 16, 3-(5-{4-[(3-{[(1-{5-[(1R,3R)-2-(2-fluoro-2-methylpropyl)-3-methyl-2,3,4,9-tetrahydro-1H-beta-carbolin-1-yl]pyrimidin-2-yl}piperidin-4-yl)methyl](methyl)amino}azetidin-1-yl)methyl]piperidin-1-yl}-1-oxo-1,3-dihydro-2H-isoindol-2-yl)piperidine-2,6-dione]: 3 nM; for `C[C@@H]1Cc2c([nH]c3ccccc23)[C@@H](c2cnc(N3CCC(CN4CCN(c5ccc6c(c5)C(=O)N(C5CCC(=O)NC5=O)C6=O)CC4)CC3)nc2)N1CC(C)(C)F` (stereo partly drawn) [Example 3, 2-[2,6-Dioxo3-piperidyl]-5-[4-[[1-[5-[(1R,3R)-2-(2-fluoro-2-methyl-propyl)-3-methyl-1,3,4,9-tetrahydropyrido[3,4-b]indol-1-yl]pyrimidin-2-yl]-4-piperidyl]methyl]piperazin-1-yl]isoindoline-1,3-dione]: 3.7 nM.
For the molecule `C[C@@H]1Cc2c([nH]c3ccccc23)[C@@H](c2cnc(N3CCC(CCN4CCN(c5ccc6c(c5)CN(C5CCC(=O)NC5=O)C6=O)CC4)CC3)nc2)N1CC(F)(F)F` (stereo partly drawn) [Example 15, 3-(5-{4-[2-(1-{5-[(1R,3R)-3-methyl-2-(2,2,2-trifluoroethyl)-2,3,4,9-tetrahydro-1H-beta-carbolin-1-yl]pyrimidin-2-yl}piperidin-4-yl)ethyl]piperazin-1-yl}-1-oxo-1,3-dihydro-2H-isoindol-2-yl)piperidine-2,6-dione], the IC50 worked out at 3.7 nM.
The same measure for `C[C@@H]1Cc2c([nH]c3ccccc23)[C@@H](c2cnc(N3CCC(OCCCN4CCN(c5ccc6c(c5)CN(C5CCC(=O)NC5=O)C6=O)CC4)CC3)nc2)N1CC(C)(C)F` (stereo partly drawn) [Example 38, 3-[5-(4-{3-[(1-{5-[(1R,3R)-2-(2-fluoro-2-methylpropyl)-3-methyl-2,3,4,9-tetrahydro-1H-beta-carbolin-1-yl]pyrimidin-2-yl}piperidin-4-yl)oxy]propyl}piperazin-1-yl)-1-oxo-1,3-dihydro-2H-isoindol-2-yl]piperidine-2,6-dione]: 3.6 nM.
The result for `C[C@@H]1Cc2c([nH]c3ccccc23)[C@@H](c2cnc(N3CCC(CCCN4CCN(c5ccc6c(c5)CN(C5CCC(=O)NC5=O)C6=O)CC4)CC3)nc2)N1CC(F)(F)F` (stereo partly drawn) [Example 34, 3-(5-{4-[3-(1-{5-[(1R,3R)-3-methyl-2-(2,2,2-trifluoroethyl)-2,3,4,9-tetrahydro-1H-beta-carbolin-1-yl]pyrimidin-2-yl}piperidin-4-yl)propyl]piperazin-1-yl}-1-oxo-1,3-dihydro-2H-isoindol-2-yl)piperidine-2,6-dione] reads 7.3 nM.
